Data reported in patent publication US6414036B1, “Composition for treatment of infections of humans and animals” (Van Beek Global/Ninkov LLC, priority 1999, dated 2002).

System: microorganism culture
Test: Comparative testing: time to death of the culture after contact
Assay type: cell-based
Experimental: Isopropyl-o-cresol (95% purity) was obtained as described in Examples I and 2. A 50% solution of isopropyl-o-cresol was prepared by combining 50 grams of isopropyl-o-cresol with […] citric and propionic acid.
An antimicrobial compound containing isopropyl-o-cresol was prepared as described in Examples 3 and 4.
Each compound was administered to a culture of […]. Cell death was observed by monitoring whether or not the cells multiplied.
For example, when the microorganism culture was contacted with isopropyl-o-cresol alone the cells died within 6-8 hours after contact. When the microorganism culture was contacted with isopropyl-o-cresol combined with an organic acid to form a solution (without chemical modification of either species), the microorganisms died within 3-4 hours after exposure. When the microorganism culture was contacted with an antimicrobial compound containing isopropyl-o-cresol reacted with propionic and citric acids (50:50), the organisms died within 5-10 minutes after being contacted with the antimicrobial compound.

Structure (SMILES) | time within which the cells died after contact | time within which the organisms died after contact
Cc1ccc(C(C)C)cc1O [isopropyl-o-cresol, 5-isopropyl-2-methylphenol] | 6 to 8 h | –
CC(C)c1cc(CC(=O)O)cc(O)c1OC(=O)C(O)(CC(=O)O)CC(=O)O [3-{[4-(carboxymethyl)-2-hydroxy-6-isopropylphenoxy]carbonyl}-3-hydroxypentanedioic acid] | – | 5 to 10 min
